≈ marks a conversion by molar mass, not a printed value.

Assay type in all cases: cell-based
The subject of test [1] is Klebs. Pneu. MGH-2. Briefly: Minimal Inhibitory Concentration, Klebs. Pneu. MGH-2.
In test [2] the test system is Pseudo. Aeru BRK. Briefly: Minimal Inhibitory Concentration, Pseudo. Aeru BRK.
Test [3] relates to Entero C. IMM-11. The test can be described thus: Minimal Inhibitory Concentration, Entero C. IMM-11.
In test [4] the test system is Staph Aureus UC-76. Briefly: Minimal Inhibitory Concentration, Staph Aureus UC-76. Conditions: Staphylococcus aureus, UC76.
Test [5] concerns Pseudo. Aeru 28. The test can be described thus: Minimal Inhibitory Concentration, Pseudo. Aeru 28.
The subject of test [6] is Prot. Vulg. 1810. The test can be described thus: Minimal Inhibitory Concentration, Prot. Vulg. 1810.
The test system of test [7] is Serr. Mar. IMM-16. Briefly: Minimal Inhibitory Concentration, Serr. Mar. IMM-16.
Test [8] relates to E. Coli Brig. Briefly: Minimal Inhibitory Concentration, E. Coli Brig. Conditions: Escherichia coli.
Test [9] concerns Pseudo. Aeru UI-18. Briefly: Minimal Inhibitory Concentration, Pseudo. Aeru UI-18.
Test [10] deals with E. Coli Vogel. The test can be described thus: Minimal Inhibitory Concentration, E. Coli Vogel. Conditions: Escherichia coli.

In general, MIC refers to the least concentration at which growth counts as inhibited. A lower MIC goes with a more susceptible organism. As for `CCOC(=O)CNC(=O)Nc1ccc2[nH]c(=O)c(C(=O)N[C@@H](C(=O)N[C@@H]3C(=O)N4[C@@H]3SC(C)(C)[C@@H]4C(=O)O)c3ccc(O)cc3)cc2c1`, the MIC in [1] stood at 12.5 µg/mL (≈ 18.4 µM); in test [2], 3.1 µg/mL (≈ 4.55 µM); in test [3], 12.5 µg/mL (≈ 18.4 µM); in [4] it was 1.6 µg/mL (≈ 2.35 µM); in [5] it was 3.1 µg/mL (≈ 4.55 µM); in test [6] it was 6.3 µg/mL (≈ 9.26 µM). For the same compound, the MIC in test [7] amounted to 12.5 µg/mL (≈ 18.4 µM); in test [8], 12.5 µg/mL (≈ 18.4 µM); in [9], 3.1 µg/mL (≈ 4.55 µM); in test [10], 6.3 µg/mL (≈ 9.26 µM).
Take `CCNC(=O)CNC(=O)Nc1ccc2[nH]c(=O)c(C(=O)N[C@@H](C(=O)N[C@@H]3C(=O)N4[C@@H]3SC(C)(C)[C@@H]4C(=O)O)c3ccc(O)cc3)cc2c1`: the MIC in [1] worked out at 12.5 µg/mL (≈ 18.4 µM); in [2], 1.6 µg/mL (≈ 2.35 µM); in test [3], 3.1 µg/mL (≈ 4.56 µM); in test [4], 0.8 µg/mL (≈ 1.18 µM); in test [5], 1.6 µg/mL (≈ 2.35 µM); in test [6], 1.6 µg/mL (≈ 2.35 µM). Moreover, the MIC in test [7] is 12.5 µg/mL (≈ 18.4 µM); in test [8] it was 6.3 µg/mL (≈ 9.27 µM); in test [9] it was 1.6 µg/mL (≈ 2.35 µM); in test [10] it was 1.6 µg/mL (≈ 2.35 µM).
Regarding `CC1(C)S[C@@H]2[C@H](NC(=O)[C@H](NC(=O)c3cc4cc(NC(=O)NCC(N)=O)ccc4[nH]c3=O)c3ccc(O)cc3)C(=O)N2[C@H]1C(=O)O`, the MIC in test [1] is 12.5 µg/mL (≈ 19.2 µM); in test [2], 0.8 µg/mL (≈ 1.23 µM); in [3], 6.3 µg/mL (≈ 9.67 µM); in test [4] it was 0.8 µg/mL (≈ 1.23 µM); in test [5], 0.8 µg/mL (≈ 1.23 µM); in test [6], 1.6 µg/mL (≈ 2.46 µM). Also, the MIC in test [7] amounted to 12.5 µg/mL (≈ 19.2 µM); in [8], 6.3 µg/mL (≈ 9.67 µM); in test [9], 1.6 µg/mL (≈ 2.46 µM); in test [10], 1.6 µg/mL (≈ 2.46 µM).
With `CCNC(=O)Nc1ccc2[nH]c(=O)c(C(=O)N[C@@H](C(=O)N[C@@H]3C(=O)N4[C@@H]3SC(C)(C)[C@@H]4C(=O)O)c3ccc(O)cc3)cc2c1` [A CH3 CH2, N-[6-[[(Ethylamino)carbonyl]amino]-1,2-dihydro-2-oxo-3-quinolinylcarbonyl]amoxicillin], the MIC in [1] worked out at 6.3 µg/mL (≈ 10.1 µM); in test [2] it was 1.6 µg/mL (≈ 2.57 µM); in test [3] it was 3.1 µg/mL (≈ 4.98 µM); in test [4], 0.4 µg/mL (≈ 0.642 µM); in [5], 0.4 µg/mL (≈ 0.642 µM); in test [6] it was 1.6 µg/mL (≈ 2.57 µM). Moreover, the MIC in [7] is 6.3 µg/mL (≈ 10.1 µM); in test [8], 3.1 µg/mL (≈ 4.98 µM); in test [9], 1.6 µg/mL (≈ 2.57 µM); in test [10], 1.6 µg/mL (≈ 2.57 µM).
For `CCNC(=O)Nc1ccc2[nH]cc(C(=O)N[C@@H](C(=O)N[C@@H]3C(=O)N4[C@@H]3SC(C)(C)[C@@H]4C(=O)O)c3ccc(O)cc3)c(=O)c2c1` [B CH3 CH2, N-[6-[[(Ethylamino)carbonyl]amino]-1,4-dihydro-4-oxo-3-quinolinylcarbonyl]amoxicillin], the MIC in [1] turned out to be 3.1 µg/mL (≈ 4.98 µM); in test [2], 0.4 µg/mL (≈ 0.642 µM); in test [3], 3.1 µg/mL (≈ 4.98 µM); in [4], 0.8 µg/mL (≈ 1.28 µM); in test [5], 0.8 µg/mL (≈ 1.28 µM); in test [6], 0.8 µg/mL (≈ 1.28 µM). The MIC in test [7] was 1.6 µg/mL (≈ 2.57 µM); in [8] it was 6.3 µg/mL (≈ 10.1 µM); in test [9] it was 3.1 µg/mL (≈ 4.98 µM); in test [10] it was 0.4 µg/mL (≈ 0.642 µM).
